Laboratory results: patent publication US7378446B2, “Compound having anti-HCV activity and process for producing the same” (Chugai Seiyaku Kabushiki Kaisha, priority 2003, dated 2008)
pIC50: −log10 of the molar value.

Tests used:
[1] = in vitro; type: cell-based; settings: human; replicon cells, 3 days culture with compound, Cell Counting Kit 8, absorbance 450 nm; read-out: Cytotoxicity CC50
Experimental: (§1) A construct was prepared in which a luciferase gene derived from firefly was introduced as a reporter gene in HCV-RNA to assay the number of copies of HCV-RNA. The luciferase gene was introduced in the form of fusing with neomycin-resistance gene directly below the IRES (Internal Ribosome Entry Site) of the HCV gene in accordance with the method of Krieger, et al. (J. Virol. 75:4614). After synthesizing this RNA in vitro, it was introduced into Huh7 cell by electroporation and isolated as G418-resistant clone. Firefly luciferase HCV replicon cells (3-1) were suspended in Dulbecco's MEM (Gibco cat. no. 10569-010) containing 5% fetal bovine serum (Hyclone cat. no. SH30071.03), inoculated into the wells of a 96-well plate at 5000 cells/well and then cultured overnight at 37° C. and 5% CO2. Approximately 20 hours later, the diluted test compound was added at 10 μl per well followed by culturing for another 3 days. Two series of assay plates were prepared, and the assay was carried out using a white plate for one series and a clear plate for the other series. Following completion of culturing, the white plate was used for the Steady-Glo Luciferase Assay System (Promega cat. no. E2520). Namely, after adding 100 μl of reagent per well, mixing by a pipette 3 to 4 times and then allowing to stand for 5 minutes, luminescence was measured with the 1450 MicroBeta TRILUX (Wallac). Values obtained in the absence of cell addition were used as background values and subtracted from all values to calculate the IC50 (50% inhibitory concentration) of the drug based on a value of 0% inhibition for the value in the absence of addition of test compound.
The Cell Counting Kit 8 (Dojindo cat. no. CK04) was used to determine the cytotoxicity. Namely, 10 μl of Cell Counting Kit 8 were added to a clear plate and incubated for 30 to 60 minutes at 37° C. Absorbance at a wavelength of 450 nm and a control wavelength of 630 nm was measured with a 96-well plate reader. Values in the absence of cell addition were used as background values and subtracted from all values to calculate the CC50 (50% cell inhibitory concentration) of the drug based on a value of 0% inhibition for the value in the absence of addition of drug.

[2] = tested on: Firefly luciferase HCV replicon cells (3-1); assay: Replicon assay (firefly luciferase HCV replicon); type: cell-based; settings: Hepatitis C virus, 72 h; Huh7-derived luciferase HCV replicon cells, 3 days culture with compound, Steady-Glo luminescence
Experimental: as §1

Row | Structure (SMILES) | CC50 [1] [nM] | pIC50 [2]
1 | CCCCCCCC(=O)CCCCCC/C=C/[C@H](C(=O)N[C@@H](Cc1ccc(-n2cc(C(=O)OCC)nn2)cc1)C(=O)O)[C@@](O)(CC(=O)O)C(=O)O [Compound 96] | > 1000 | 8.05
2 | CCCCCCCC(=O)CCCCCC/C=C/[C@H](C(=O)N[C@@H](Cc1cccnc1)C(=O)O)[C@@](O)(CC(=O)O)C(=O)O [Compound 97] | > 1000 | 6.52
3 | CC(C)CCOc1ccc(C[C@H](NC(=O)[C@@H](/C=C/CCCCCCC(=O)CCCCCCF)[C@@](O)(CC(=O)O)C(=O)O)C(=O)O)cc1 [Compound 98] | > 1000 | 7.68
4 | COCCCCCCC(=O)CCCCCC/C=C/[C@H](C(=O)N[C@@H](Cc1ccc(OCCC(C)C)cc1)C(=O)O)[C@@](O)(CC(=O)O)C(=O)O [Compound 99] | > 1000 | 7.25
5 | CCCCCCCCCC(=O)CCCC/C=C/[C@H](C(=O)N[C@@H](Cc1ccc(-c2ccccc2)cc1)C(=O)O)[C@@](O)(CC(=O)O)C(=O)O [Compound 100] | > 1000 | 7.04
6 | CCCCCCCCCC(=O)CCCC/C=C/[C@H](C(=O)N[C@@H](Cc1ccc(Oc2ccccc2)cc1)C(=O)O)[C@@](O)(CC(=O)O)C(=O)O [Compound 101] | > 1000 | 7.34
7 | CCCCCCC(=O)CCCCCC/C=C/[C@H](C(=O)N[C@@H](Cc1ccc(-c2ccccc2)cc1)C(=O)O)[C@@](O)(CC(=O)O)C(=O)O [Compound 102] | > 1000 | 8.30
8 | CCCCCCC(=O)CCCCCC/C=C/[C@H](C(=O)N[C@@H](Cc1ccc(Oc2ccccc2)cc1)C(=O)O)[C@@](O)(CC(=O)O)C(=O)O [Compound 103] | > 1000 | 7.96
9 | CCCC#CCOc1ccc(C[C@H](NC(=O)[C@@H](/C=C/CCCCCCC(=O)CCCCCCC)[C@@](O)(CC(=O)O)C(=O)O)C(=O)O)cc1 [Compound 104] | > 1000 | 9.00
10 | C#CCOc1ccc(C[C@H](NC(=O)[C@@H](/C=C/CCCCCCC(=O)CCCCCCC)[C@@](O)(CC(=O)O)C(=O)O)C(=O)O)cc1 [Compound 105] | > 1000 | 8.52
11 | C#CCCCOc1ccc(C[C@H](NC(=O)[C@@H](/C=C/CCCCCCC(=O)CCCCCCC)[C@@](O)(CC(=O)O)C(=O)O)C(=O)O)cc1 [Compound 106] | > 1000 | 9.00
12 | CC#CCCOc1ccc(C[C@H](NC(=O)[C@@H](/C=C/CCCCCCC(=O)CCCCCCC)[C@@](O)(CC(=O)O)C(=O)O)C(=O)O)cc1 [Compound 107] | > 1000 | 9.00
13 | CCCCCCCC(=O)CCCCCC/C=C/[C@H](C(=O)N[C@@H](Cc1ccc(OCC#CCN(CC)CC)cc1)C(=O)O)[C@@](O)(CC(=O)O)C(=O)O [Compound 108] | > 1000 | 8.52
14 | CCC#CCOc1ccc(C[C@H](NC(=O)[C@@H](/C=C/CCCCCCC(=O)CCCCCCC)[C@@](O)(CC(=O)O)C(=O)O)C(=O)O)cc1 [Compound 109] | > 1000 | 8.70
15 | CCCCCCCC#CCOc1ccc(C[C@H](NC(=O)[C@@H](/C=C/CCCCCCC(=O)CCCCCCC)[C@@](O)(CC(=O)O)C(=O)O)C(=O)O)cc1 [Compound 110] | > 1000 | 8.30
16 | CCCCCCCC(=O)CCCCCC/C=C/[C@H](C(=O)N[C@@H](Cc1ccc(OCC#CC#CC(C)(C)C)cc1)C(=O)O)[C@@](O)(CC(=O)O)C(=O)O [Compound 111] | > 1000 | 8.22
